Measured values: patent publication US20090162855A1, “Identification of Genetic Variants Associated with Increased Severity of Pulmonary Disease” (CASE WESTERN RESERVE UNIVERSITY, priority 2007, published 2009)
Square brackets hold non-standard residues; d marks the D form. Peptide text beside a SMILES is read from it.

What was measured:
EDNRA mRNA = experiment: Quantitative RT-PCR of EDNRA mRNA in smooth muscle cell lines treated with estrogen; format: cell-based, human; details: 9 smooth muscle cell lines (5 female, 4 male), estrogen 24 hours, vs unstimulated cells, 18S rRNA internal control
Method: Effects of these variants on EDNRA mRNA levels were examined. Primary airway smooth muscle cells from 10 non-CF individuals were harvested for DNA and RNA. Airway smooth muscle cells were cultured from tracheas obtained from autopsy. Cells were isolated from human trachealis muscle by digesting with collagenase and elastase in the presence of soybean trypsin inhibitor at 37° C. as previously described. The cells were harvested by centrifugation after filtering through Nytex and grown in Dulbecco's modified eagle's medium (DMEM/F12 1:1) containing 10% fetal bovine serum, 100 U/ml penicillin and 100 μg/ml streptomycin at 37° C. in a humidified atmosphere with 5% CO2 and 95% air. DNA samples were genotyped for rs1801708 and rs5335 and EDNRA mRNA quantified from total RNA by real time RT-PCR. EDNRA mRNA was quantified relative to 18s rRNA in 10 airway smooth muscle cell lines and compared by genotype. RNA was isolated from airway smooth muscle cells using the Qiagen RNeasy kit. […] A Ct was established for each sample and compared to standard curves to determine mRNA quantity. […] Values are expressed as a ratio of EDNRA: 18s copies. […]
Nine smooth muscle cell lines were exposed to estrogen and mRNA levels compared to unstimulated cells. […] Quantitative RT-PCR was carried out to determine copy number using 18S rRNA as an internal control. […]

[1] = system: tracheal smooth muscle cells; experiment: Mitogenic index by BrdU incorporation in primary cultures of tracheal smooth muscle cells; format: cell-based, human; details: for proliferation (BrdU incorporation), treated vs untreated: cultures from 9 individuals, estrogen 72 hrs
Description: (§1) A cellular phenotype that could potentially explain the genotype-phenotype association is a difference in smooth muscle proliferation. To be able to assess this in vitro, we have carried out studies examining the mitogenic effects of the receptor agonist, endothelin, on cultured smooth muscle cells, as well as those of estrogen and Transforming Growth Factor Beta 1 (TGFβ1). In these studies, TGFβ1 is used as a control mitogen in that it exerts its effect on proliferation independent of the endothelin receptor. […] Primary cultures of tracheal smooth muscle cells from 4 individuals were treated with TGFβ1, estrogen, endothelin, or estrogen and endothelin (Estr/Endo) for 72 hrs, and assayed for mitogenic index by BrdU incorporation (FIG. 8A) or for cell number (FIG. 8B). Values shown are ratios of treated to untreated (control) cells grown simultaneously. Each cell line and condition was carried out in triplicate. […] An EDNRA antagonist, BQ123 (Sigma), was included at 1 μM to determine if EDNRA-mediated effects could be blocked.
A larger group of cell lines stratified by genotype was examined. Primary cultures of tracheal smooth muscle cells from 9 individuals were treated with estrogen for 72 hrs, assayed for BrdU incorporation and compared to control cultures (no estrogen). FIG. 9 provides the ratio of treated to untreated cells. […] Treatment with estrogen appears to result in increased proliferation, but the effect is genotype dependent. This is in contrast to other reports of vascular smooth muscle in which estrogen inhibits proliferation.

human ASM cells = experiment: Actin stress fiber formation (TRITC-phalloidin) in cultured ASM cells; format: cell-based; details: cultured in presence of ET-1 for 24 hours; preliminary data
Description: FIG. 11 is a pair of micrographs of cultured ASM cells placed in either serum free media (A) or media containing ET-1 (B) for 24 hr; and
EDNRA is expressed on airway and vascular smooth muscle. Using indirect immunocytochemical staining of human ASM cells from the trachealis muscle retrieved from necroscopy tissue of 53 individuals, we have determined these cells consistently display EDNRA on the cell membrane (FIG. 10—staining is predominantly along cell membranes). […] This implies a functional receptor with ligand binding and intact intracellular signaling pathways.

smooth muscle cells = experiment: Intracellular calcium mobilization from sarcoplasmic reticulum measured using Fura-2; format: cell-based; details: 24 hrs in endothelin, washout
Method: FIG. 12 is a graph showing the response of cultures of smooth muscle cells to endothelin-1 (ET-1) acutely (control) and sarcoplasmic reticulum release of calcium measured by Fura-2 fluorescence ratios.
Smooth muscle cells of various EDNRA genotype combinations were examined for changes in intracellular calcium in response to endothelin. The effects of chronic exposure were assessed by incubating the cells for 24 hrs in endothelin, followed by a brief washout (30 minutes) and then re-exposure to endothelin and measurement of calcium release. […] For these assays, intracellular calcium mobilization from sarcoplasmic reticulum was measured using Fura-2. No significant differences were observed between subjects with regards to magnitude or duration of response from acute stimulation (FIG. 12, control). However, if cultured for 24 hrs in the presence of endothelin, washed out just before reexposure, there is a significant difference between subjects in the magnitude of response (FIG. 12, ET-1 conditioned).

[2] = system: tracheal smooth muscle cells; format: cell-based, human; details: cultures from 4 individuals, 72 hrs
Description: as §1

Q: How did the “increase of EDNRA mRNA levels in response to hormone treatment” value (EDNRA mRNA) turn out when estrogen was run?
A: The value was “approximately 5 fold”.

Q: What about the “proliferation (BrdU incorporation), treated vs untreated” value ([1]; cells with "protective" GG genotype) of the same compound?
A: The value was “no effect”.

Q: What about the “proliferation (BrdU incorporation), treated vs untreated” value ([1]; cells with "severe" AA genotype) of the same compound?
A: Its value is “increase proliferation”.

Q: `CC[C@H](C)[C@H](NC(=O)[C@H](CC(=O)O)NC(=O)[C@H](CC(C)C)NC(=O)[C@H](Cc1c[nH]cn1)NC(=O)[C@@H]1CSSC[C@H](N)C(=O)N[C@@H](CO)C(=O)N[C@H]2CSSC[C@H](NC(=O)[C@H](CCC(=O)O)NC(=O)[C@H](CCCCN)NC(=O)[C@H](CC(=O)O)NC(=O)[C@H](CCSC)NC(=O)[C@H](CC(C)C)NC(=O)[C@H](CO)NC(=O)[C@H](CO)NC2=O)C(=O)N[C@@H](C(C)C)C(=O)N[C@@H](Cc2ccc(O)cc2)C(=O)N[C@@H](Cc2ccccc2)C(=O)N1)C(=O)N[C@H](C(=O)N[C@@H](Cc1c[nH]c2ccccc12)C(=O)O)[C@@H](C)CC` [endothelin-1] was tested. Which “formation of actin stress fibers” value (human ASM cells) did it give?
A: The value was “increases the formation of actin stress fibers”.

Q: And the “calcium release activity lost on re-exposure” value (smooth muscle cells; cells with "adverse" genotypes)?
A: Its value is 10-15%.

Q: What about the “calcium release activity on re-exposure, of pre-exposure activity” value (smooth muscle cells; cells with "protective" genotype of 3′ markers) of the same compound?
A: The value was 15%.

Q: For `CC(C)C[C@@H]1NC(=O)[C@@H](C(C)C)NC(=O)[C@@H]2CCCN2C(=O)[C@@H](CC(=O)O)NC(=O)[C@@H](Cc2c[nH]c3ccccc23)NC1=O` [BQ123] (cyclo(L[dW][dD]P[dV])), which “mitogenic index of cells with EDNRA antagonist included” value ([1]; BQ123 at 1 μM) is on record?
A: Its value is “reduced the mitogenic index”.

Q: How did the “mitogenic index (BrdU incorporation), ratio of treated to untreated cells” value ([1]; cultures from 4 individuals, 72 hrs) turn out when “Transforming Growth Factor Beta 1 [TGFβ1]” was run?
A: The value was “tripled”.

Q: What about the “cell number, ratio of treated to untreated cells” value [2] of the same compound?
A: Its value is “did not significantly alter cell number”.
